Assay results reported in publication PMC6540241, “Targeting Tumor Markers with Antisense Peptides: An Example of Human Prostate Specific Antigen” (International Journal of Molecular Sciences, 2019).
Where a SMILES comes first, the peptide text is derived from it. Where no end group is shown, it is not given here. The star is where a group is joined. Biotin = O=C1N[C@H]2[C@H](CS[C@H]2CCCCC(=O)*)N1

B1: Human prostate specific antigen (hPSA) peptide 53–59: RHSLFHP (peptide)
peptide: RHSLFHP
notes: human prostate specific antigen (hPSA), residues 53-59 (R53-P59); 77-83 of the precursor P07288; In the magnetic particle enzyme immunoassay the peptide was coupled by EDC to SPHERO carboxyl magnetic particles; also called sense peptide; source: synthetic peptide, bought: GenScript (>97% purity)
B2: N-terminal biotin antisense peptide Biotin-AVRDKVG (peptide)
peptide: Biotin-AVRDKVG
modifications: not fully specified
notes: Some sentences print AKRDKVG; also called biotinylated antisense peptide AVRDKVG; antisense paratope Biotin-AVRDKVG; source: synthetic peptide, bought: GenScript (>97% purity)

Key:
[1] = test system: human prostate specific antigen (hPSA) in prostate cancer tissue; experiment: Immunohistochemical staining of hPSA, protocol 2 (biotinylated peptide instead of primary antibody); parameters: key to overall quality of scoring (NordiQC) / hPSA staining quality score (NordiQC): 3: Staining reaction considered perfect or close to perfect.; 2: Staining reaction considered fully acceptable. The protocol may be optimized to ensure the best staining intensity and signal-to-noise ratio.; 1: Staining considered insufficient.; 0: Staining considered very insufficient
Description: (§1) Immunohistochemistry was performed on deparafinized slides (xylen and a series of ethanol solutions) at room temperature (20–25 °C). The phosphate-buffered saline (PBS) was used, with a pH of 7.2 and containing disodium hydrogen phosphate, sodium chloride, potassium chloride and potassium dihydrogen phosphate was used. PBS stock solution: 4 g KH2PO4, 23 g Na2HPO4, 4 g KCl, 160 g NaCl and 810 mL distilled water. Before staining, 100 mL of stock solution was diluted with 1900 mL of distilled water.
All slides (from seven patients) were selected from the repository of prostate cancer tissue, with diagnosis confirmed by consensus of two independent pathologists. The two pathologists who examined the slides stained with antisense peptides were unconnected with the pathologists who established the initial diagnosis.
(§2) Each of the two immunohistochemistry protocols for PSA staining consisted of six steps. Steps 1, 4, 5 and 6 of protocol 1 and protocol 2 were identical, while steps 2 and 3 differed (Figure 5 and Figure 6). For this study, the slides were kept in the dark at room temperature (20–25 °C), to prevent fading as a result of exposure to strong light. They were analyzed using an Olympus BX41 microscope, with an Olympus DP71 camera set to three levels of magnification: less than 40×, 100×, and 500×.
(§3) The staining protocol 2 was a modified IHC protocol 1, as follows: In step 2 we used antisense peptide Biotin-AVRDKVG, instead of the primary monoclonal mouse anti-human PSA antibody, in step 3 we used rabbit polyclonal antibody to biotin conjugated to HRP, instead of HRP labeled polymer conjugated to goat anti-mouse immunoglobulins (Figure 5), with peptide Biotin-EHFRW as a negative control (Figure 7). Otherwise, the procedures and chemicals were identical. Quality control for the PSA staining was investigated using NordiQC scoring criteria: 0—Poor; 1—Borderline; 2—Good; 3—Optimal. The scale is presented in Table A2, and the final results given in Table 4 are expressed as a sum of scores.
IHC staining―protocol 2: • The specimen was covered with peroxidase block, i.e., 100 μL of 0.03% hydrogen peroxide containing sodium azide (Dako, Glostrup, Denmark), and incubated for four minutes. Following this, the specimen was gently rinsed with phosphate buffered saline (PBS), and placed in a fresh buffer bath. • Biotinylated antisense peptide AVRDKVG (GenScript, Piscataway, NJ, USA) directed to PSA epitope 53–59 (RHSLFHP) was used to cover the specimen. Five milligrams of Biotin-AVRDKVG antisense was diluted in 2.5 mL PBS. Dilutions 1:10, 1:50, 1:100, 1:200 and 1:500 were applied to cover the specimen. A 100 μL volume was used per section. After 30 min of incubation, each specimen was gently rinsed with PBS and placed in a fresh buffer bath. • Anti-biotin antibody conjugated to HRP (ab34645, Abcam, Cambridge, UK) was applied to cover the specimen. Of the antibody 10 mg/2 mL was diluted 1:100. One hundred microliters of the diluted antibody was applied to cover each specimen, followed by a 30 min incubation. After the incubation, the specimen was gently rinsed with PBS and placed in a fresh buffer bath. • The specimen was covered with 100 μL of AEC + substrate-chromogen solution for 10 min, i.e., 3-amino-9-ethylcarbazole containing hydrogen peroxide, stabilizers, enhancers and an anti-microbial agent (Dako, Glostrup, Denmark). After that period the specimen was again rinsed with PBS. • The slides were immersed in a bath of aqueous hematoxylin (Mayerr’s hematoxylin), and rinsed gently in a distilled water bath. The slides were dipped 10 times into a bath of ammonia (0.037 mol/L), and then rinsed in a bath of distilled water for four minutes. • The specimens were mounted and coverslipped with non-aqueous permanent mounting medium Ultramount.

[2] = target: T1, hPSA peptide RHSLFHP (residues 53–59) (Homo sapiens, UniProt P07288); experiment: Microscale thermophoresis (MST); type: binding
T1 construct: Human prostate specific antigen (hPSA) peptide 53–59: RHSLFHP; purchased GenScript; host or cells: synthetic peptide
Description: The binding between the biotinylated antisense peptide AVRDKVG and a titrant, i.e., hPSA peptide RHSLFHP (Figure 3b), was observed by the method of microscale thermophoresis (MST). MST-analysis was performed using the Monolith.NT.115 instrument (NanoTemper Technologies GmbH, Munich, Germany). Biotin-AVRDKVG antisense directed to the hPSA region 53–59 was labeled with DY-495 (Red). The labeling procedure and the subsequent removal of unattached dye were performed within 45 min. A serial dilution of the non-labeled hPSA titrant was prepared in a 10 mM phosphate buffer. The concentration of biotin-hPSA antisense labelled with DY-495 was kept constant, while the concentration of the non-fluorescent binding partner (hPSA peptide RHSLFHP53–59) was varied between 0.0854 µM and 2.8 mM. After a short incubation, the samples were loaded into MST NT.115 standard glass capillaries and the MST-analysis was performed. The data were analyzed using GraphPad Prism software version 5.

[3] = target: T2, hPSA peptide RHSLFHP coated onto carboxyl magnetic particles (Homo sapiens, UniProt P07288); experiment: Magnetic particle enzyme immunoassay (MPEIA); type: binding
T2 construct: Human prostate specific antigen (hPSA) peptide 53–59: RHSLFHP; purchased GenScript; host or cells: synthetic peptide
Description: Briefly, the reaction mixture was composed of 2 mL sodium acetate buffer (0.01M, pH 5.0), 2 mg of peptide and 2 mL of 2.5% w/v carboxyl magnetic particles―1.14 μm, 20 mg of EDC. Reactions proceeded in glass reaction tubes overnight at room temperature in a rotary mixer. Tubes were centrifuged at 3000× g for 15 min, supernatant was carefully discarded, and the pellets were washed twice in 4 mL isotonic buffered saline (IBS), followed by centrifugation. After washing, coated magnetic particles were resuspended in 4 mL of PBS containing 0.05% Tween 20.
Two folds serial dilutions (1.09–70 µM) of biotinylated antisense peptide AVRDKVG were made in 96-well microtiter plates to generate standard curves (Figure 4b). Mismatched peptide Biotin-EHFRW was used as a negative control (Figure 4b). A suspension (1.25% w/v) of carboxyl magnetic particles, coated with sense peptide RHSLFHP, was added to each well (40 µL/well). The plates were incubated at room temperature for 30 min and washed with PBS-Tween 20 five times. The washing solution was removed each time using the Spherotech UltraMag Separator (Sperotech, Inc., Lake Forest, IL, USA).
A blocking solution (PBS with 1% BSA) was added to the wells and incubated at room temperature for one hour. […] The absorbances were read at 450 nm on a multiwell plate reader. The data were analyzed using GraphPad Prism software version 5.

liver tissue = experiment: Immunohistochemical staining of negative control tissue (protocol 2); parameters: species or system human
Description: as §1
as §2, with “For this study, the slides were kept in the dark at room temperature (20–25 °C), to prevent fading as a result of exposure to strong light.” left out
as §3, with “Otherwise, the procedures and chemicals were identical. Quality control for the PSA staining was investigated using NordiQC scoring criteria: 0—Poor; 1—Borderline; 2—Good; 3—Optimal.” left out, “scores. […]” for “scores.”

[4] = target: B2; experiment: MST; Biotin-AVRDKVG labelled with DY-495 kept constant; unlabelled RHSLFHP titrated 0.0854 µM to 2.8 mM in 10 mM phosphate buffer; Monolith NT.115, standard capillaries; settings: both partners purified
[5] = target: B1; experiment: magnetic particle enzyme immunoassay (MPEIA); RHSLFHP coupled by EDC to SPHERO carboxyl magnetic particles; biotinylated peptide in two-fold dilutions 1.09–70 µM, room temperature, 30 min, PBS-Tween 20 washes; detected with streptavidin-peroxidase polymer and OPD, absorbance at 450 nm; settings: both partners purified
[6] = mismatched peptide, negative control

Molecule: CC(C)[C@H](NC(=O)[C@H](C)NC(=O)CCCC[C@@H]1SC[C@@H]2NC(=O)N[C@@H]21)C(=O)N[C@@H](CCCNC(=N)N)C(=O)N[C@@H](CC(=O)O)C(=O)N[C@@H](CCCCN)C(=O)N[C@H](C(=O)NCC(=O)O)C(C)C [Biotin-AVRDKVG] (Biotin-AVRDKVG-OH)
- signal to noise ratio versus standard monoclonal antibody ([1]; compared with primary monoclonal mouse anti-human PSA antibody): comparable to the standard primary monoclonal mouse anti-human PSA antibody
- hPSA staining quality score (NordiQC) ([1]; dilution 1:10 (of 5 mg in 2.5 mL PBS), patient 1): 0
- hPSA staining quality score (NordiQC) ([1]; dilution 1:10, patient 2): 0
- hPSA staining quality score (NordiQC) ([1]; dilution 1:10, patient 3): 0
- hPSA staining quality score (NordiQC) ([1]; dilution 1:10, patient 4): 0
- hPSA staining quality score (NordiQC) ([1]; dilution 1:10, patient 5): 0
- hPSA staining quality score (NordiQC) ([1]; dilution 1:10, patient 6): 0
- hPSA staining quality score (NordiQC) ([1]; dilution 1:10, patient 7): 0
- Sum of scores (NordiQC) ([1]; dilution 1:10, seven patients): 0
- hPSA staining quality score (NordiQC) ([1]; dilution 1:50, patient 1): 1
- hPSA staining quality score (NordiQC) ([1]; dilution 1:50, patient 2): 1
- hPSA staining quality score (NordiQC) ([1]; dilution 1:50, patient 3): 2
- hPSA staining quality score (NordiQC) ([1]; dilution 1:50, patient 4): 1
- hPSA staining quality score (NordiQC) ([1]; dilution 1:50, patient 5): 1
- hPSA staining quality score (NordiQC) ([1]; dilution 1:50, patient 6): 1
- hPSA staining quality score (NordiQC) ([1]; dilution 1:50, patient 7): 1
- Sum of scores (NordiQC) ([1]; dilution 1:50, seven patients): 8
- staining of prostate cancer tissue ([1]; dilution 1:100): solid staining signal with minimal or absent background noise
- hPSA staining quality score (NordiQC) ([1]; dilution 1:100, patient 1): 2
- hPSA staining quality score (NordiQC) ([1]; dilution 1:100, patient 2): 2
- hPSA staining quality score (NordiQC) ([1]; dilution 1:100, patient 3): 3
- hPSA staining quality score (NordiQC) ([1]; dilution 1:100, patient 4): 2
- hPSA staining quality score (NordiQC) ([1]; dilution 1:100, patient 5): 3
- hPSA staining quality score (NordiQC) ([1]; dilution 1:100, patient 6): 2
- hPSA staining quality score (NordiQC) ([1]; dilution 1:100, patient 7): 2
- Sum of scores (NordiQC) ([1]; dilution 1:100, seven patients): 16
- hPSA staining quality score (NordiQC) ([1]; dilution 1:200, patient 1): 0
- hPSA staining quality score (NordiQC) ([1]; dilution 1:200, patient 2): 1
- hPSA staining quality score (NordiQC) ([1]; dilution 1:200, patient 3): 1
- hPSA staining quality score (NordiQC) ([1]; dilution 1:200, patient 4): 1
- hPSA staining quality score (NordiQC) ([1]; dilution 1:200, patient 5): 1
- hPSA staining quality score (NordiQC) ([1]; dilution 1:200, patient 6): 1
- hPSA staining quality score (NordiQC) ([1]; dilution 1:200, patient 7): 1
- Sum of scores (NordiQC) ([1]; dilution 1:200, seven patients): 6
- hPSA staining quality score (NordiQC) ([1]; dilution 1:500, patient 1): 0
- hPSA staining quality score (NordiQC) ([1]; dilution 1:500, patient 2): 0
- hPSA staining quality score (NordiQC) ([1]; dilution 1:500, patient 3): 0
- hPSA staining quality score (NordiQC) ([1]; dilution 1:500, patient 4): 0
- hPSA staining quality score (NordiQC) ([1]; dilution 1:500, patient 5): 0
- hPSA staining quality score (NordiQC) ([1]; dilution 1:500, patient 6): 0
- hPSA staining quality score (NordiQC) ([1]; dilution 1:500, patient 7): 0
- Sum of scores (NordiQC) ([1]; dilution 1:500, seven patients): 0
- staining of prostate cancer tissue ([1]; dilutions 1:10 and 1:50): increase in background noise
- staining of prostate cancer tissue ([1]; dilutions 1:200 and 1:500): loss of staining signal
- non-specific staining of prostate tissue ([1]; high concentration (1:10)): increase in background
- overall quality of scoring (NordiQC) ([1]; overall): 2
- Kd ([2]; Biotin-AVRDKVG labelled with DY-495, constant, RHSLFHP 0.0854 µM–2.8 mM, 10 mM phosphate buffer, r^2 = 0.989, mean ± SEM, read-out: dissociation constant (Kd)): 24.3 ± 0.74 µM
- effect of N-terminal biotinylation on binding ([2]; versus Kd of the non-biotinylated peptide by tryptophan fluorescence): does not significantly alter the binding to hPSA region 53–59 (RHSLFHP)
- Kd ([3]; peptide 1.09–70 µM, 30 min, room temperature, streptavidin-peroxidase/OPD, 450 nm, r^2 = 0.996, mean ± SEM (SEM 0.20 µM), read-out: dissociation constant (Kd)): 24.6 µM
- staining of negative control tissue (liver tissue): did not stain

Molecule: Biotin-EHFRW [N-terminal biotin mismatched peptide, negative control, reference compound]
- staining of hPSA of the prostate tissue [1, 6]: did not stain

Molecule: Biotin-EHFRW: N-terminal biotin mismatched peptide, negative control [reference compound]
- binding to hPSA epitope RHSLFHP [3, 6]: does not bind

Molecule: B1
- Kd [4]: 24.3 µM

Molecule: B2
- Kd [5]: 24.6 µM
